This note sets out measurements from US6682904B1, “Specific inhibitors of hyaluronidase 2, and methods of identifying and using same” (Deliatroph Pharmaceuticals, Inc., priority 2002, dated 2004).

For data set [1], the target named is T1, human plasma hyaluronidase (Homo sapiens, UniProt Q12794).
T1 construct: made in house
T1 sequence (Q12794 22-435): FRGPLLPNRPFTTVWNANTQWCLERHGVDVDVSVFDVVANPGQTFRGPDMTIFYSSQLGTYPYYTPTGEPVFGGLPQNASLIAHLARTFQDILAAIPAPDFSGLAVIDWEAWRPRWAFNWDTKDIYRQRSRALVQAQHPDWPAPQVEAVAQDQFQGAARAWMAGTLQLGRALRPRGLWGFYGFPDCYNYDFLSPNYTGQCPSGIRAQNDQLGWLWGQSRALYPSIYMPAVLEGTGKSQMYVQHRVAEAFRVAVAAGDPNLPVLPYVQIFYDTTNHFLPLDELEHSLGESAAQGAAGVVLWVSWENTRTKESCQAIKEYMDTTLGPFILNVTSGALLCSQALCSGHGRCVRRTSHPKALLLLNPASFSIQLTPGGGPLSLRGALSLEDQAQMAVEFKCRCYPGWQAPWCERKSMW
The experiment in a line: Effect of EDTA and added calcium on activity of purified human plasma hyaluronidase. The data set is classed as biochemical. The conditions noted are these: purified preparations of human plasma hyaluronidase. As to the method:
One hundred mg of human umbilical cord HA (ICN Pharmaceuticals; Irvine Calif.) was dissolved in 0.1 M MES, pH 5.0, to a final concentration of 1 mg/ml and allowed to dissolve for at least 24 hr at 4° C. prior to coupling of biotin. Sulfo-NHS (Pierce; Rockford Ill.) was added to the hyaluronate MES solution to a final concentration of 0.184 mg/ml. Biotin hydrazide (Pierce) was dissolved in DMSO as a stock solution of 100 mM and added to the HA solution to a final concentration of 1 mM. A stock solution of 1-ethyl-3-(3-dimethylaminopropyl) carbidodiimide (EDAC) was prepared as a 100 mM stock solution in distilled water and added to the HA biotin solution at a final concentration of 30 mM. This solution was left stirring overnight at 4° C. […]
(§1) The reaction was terminated by the addition of 200 μl/well of 6M Guanidine HCl followed by three washes of 300 μl/well with PBS, 2 M NaCl, 50 mM MgSO4, 0.05% TWEEN 20 detergent (Buffer B). […] The plate was incubated in the dark for 10-15 min, then read using a 492 nm filter in an ELISA plate reader (Titertek Multiskan PLUS; ICN) monitored by computer using the Delta Soft II plate reader software from Biometallics (Princeton N.J.). A standard curve using the bovine testicular hyaluronidase was generated by a four parameter curve fit of the commercial hyaluronidase preparation and unknown samples were interpolated through their absorbance at 492 nm.

The subject of data set [2] is human foreskin primary keratinocyte cultures. In words: Hyaluronidase activity in primary foreskin keratinocyte cultures after calcium-induced differentiation. The format is cell-based. The conditions noted are these: 1.5 mM calcium compared to 0.05 mM calcium, 72 hr in culture. On the procedure:
Hyaluronidase activity also was characterized in normal keratinocytes. Primary foreskin keratinocyte cultures were generated from circumcision tissue from […]. Briefly, tissue was washed 5× in PBS with penicillin, streptomycin, and fungizone, followed by digestion overnight at 4° C. in dispase. Epithelium was stripped from mesenchymal tissue with forceps and digested in trypsin followed by plating on collagen-coated plates in KGM (keratinocyte growth medium) with 0.05 mM calcium (Clonetics; San Diego Calif.). Cells were used between the first and fourth passage. To test the effects of induction of differentiation on hyaluronidase activity, cells were plated into 6 well plates and, at confluence, the medium was either replaced with fresh KGM with 0.05 mM calcium or changed to KGM with 1.5 mM calcium.
Cell layers and conditioned media were harvested after 72 hr in culture. Cell layers were harvested with 60 mM octylglucoside with 50 U/ml DNase I (Boehringer Mannheim; Indianapolis Ind.) and Complete™ protease inhibitor cocktail (Boehringer Mannheim) in PBS. Cells were extracted for 30 min on ice followed by centrifugation at 10,000× g for 10 min. Conditioned media from each sample was treated with octylglucoside and protease inhibitors. […] Activity was expressed as rTRU/mg cellular protein.

Data set [3] is described as follows: Microtiter-based hyaluronidase assay on immobilized biotinylated HA, pH dependence of enzyme activity. The data set is classed as biochemical. As to the method: One hundred mg of human umbilical cord HA (ICN Pharmaceuticals; Irvine Calif.) was dissolved in 0.1 M MES, pH 5.0, to a final concentration of 1 mg/ml and allowed to dissolve for at least 24 hr at 4° C. prior to coupling of biotin. Sulfo-NHS (Pierce; Rockford Ill.) was added to the hyaluronate MES solution to a final concentration of 0.184 mg/ml. Biotin hydrazide (Pierce) was dissolved in DMSO as a stock solution of 100 mM and added to the HA solution to a final concentration of 1 mM. A stock solution of 1-ethyl-3-(3-dimethylaminopropyl) carbidodiimide (EDAC) was prepared as a 100 mM stock solution in distilled water and added to the HA biotin solution at a final concentration of 30 mM. This solution was left stirring overnight at 4° C. Unlinked biotin and EDAC were removed by dialysis against water with 3 changes of 1000× volume of water. The dialyzed, biotinylated HA (bHA) was aliquoted and stored at −20° C. for up to several months.
Sulfo-NHS was diluted to 0.184 mg/ml in water with the bHA at a concentration of 0.2 mg/ml and pipetted into 96 well COVALINK-NH plates (NUNC; Placerville N.J.) at 50 μl per well. EDAC was diluted to 0.123 mg/ml in water and pipetted into the COVALINK-NH plates with the HA solution resulting in a final concentration of 10 μg/well hyaluronate and 6.15 μg/well EDAC. […]
as §1, with “nm. […]” for “nm.”

Take `O=C(O)CN(CCN(CC(=O)O)CC(=O)O)CC(=O)O` [EDTA, reference compound]: the “inhibitory effect on enzyme activity” value in data set [1] is recorded as “no inhibitory effect”.
In the case of `[Ca+2]` [calcium], the “stimulatory effect on enzyme activity” value in data set [1] (added calcium) is listed as “nor did added calcium have a stimulatory effect”. Also, the “increase in hyaluronidase activity in conditioned media and cell layer” value in data set [2] is “approximately 25 fold”.

B1: Recombinant human plasma hyaluronidase: immunoaffinity purified recombinant human plasma hyaluronidase (HYAL1), acid-active enzyme (protein)
chain: FRGPLLPNRPFTTVWNANTQWCLERHGVDVDVSVFDVVANPGQTFRGPDMTIFYSSQLGTYPYYTPTGEPVFGGLPQNASLIAHLARTFQDILAAIPAPDFSGLAVIDWEAWRPRWAFNWDTKDIYRQRSRALVQAQHPDWPAPQVEAVAQDQFQGAARAWMAGTLQLGRALRPRGLWGFYGFPDCYNYDFLSPNYTGQCPSGIRAQNDQLGWLWGQSRALYPSIYMPAVLEGTGKSQMYVQHRVAEAFRVAVAAGDPNLPVLPYVQIFYDTTNHFLPLDELEHSLGESAAQGAAGVVLWVSWENTRTKESCQAIKEYMDTTLGPFILNVTSGALLCSQALCSGHGRCVRRTSHPKALLLLNPASFSIQLTPGGGPLSLRGALSLEDQAQMAVEFKCRCYPGWQAPWCERKSMW
For the molecule B1, the “pH optimum of hyaluronidase activity” value in data set [3] (0.1 rTRU enzyme, 50 mM buffers pH 3-8 without NaCl, 30 min at 37° C.) was 3.8 pH. In addition, in data set [3] (above pH 4.5), the “enzyme activity above pH 4.5” value was “no detectable activity”. Further, in data set [3] (neutral pH), the “enzyme activity at neutral pH” value is recorded as “no activity was detected”.
